Reference: patent US11286256B2, “Bicyclic inhibitors of histone deacetylase” (Alkermes, Inc., priority 2017, dated 2022)
Read-outs that look alike come from different tables or passages of the source.

Legend:
[1] = system: human myeloid progenitors (CFU-GM); experiment: Myeloid CFU assay in human bone marrow cells; assay type: cell-based; settings: 10 μM, 14 days culture, human bone marrow cells
Experimental: (§1) Compounds were tested to evaluate the potential effects on human erythroid and myeloid progenitors using colony forming cell assays. Clonogenic progenitors of human erythroid (CFU-E, BFU-E), granulocyte-monocyte (CFU-GM) and multipotential (CFU-GEMM) lineages were assessed in a semi-solid methylcellulose-based media formulation containing rhlL-3 (10 ng/mL), rhGM-SCF (10 ng/mL), rhSCF (50 ng/mL) and Epo (3 U/mL).
(§2) Normal human bone marrow light density cells derived from normal bone marrow (NorCal Biologics, California) and qualified at ReachBio, were stored in the gaseous phase of liquid nitrogen (−152° C.) until required for the assay. On the day of the experiment, the cells were thawed rapidly, the contents of each vial was diluted in 10 mL of Iscove's modified Dulbecco's medium containing 10% fetal bovine serum (IMDM+10% FBS) and washed by centrifugation (approximately 1200 r.p.m. for 10 minutes, room temperature). The supernatant was discarded and the cell pellets resuspended in a known volume of IMDM+10% FBS. A cell count (3% glacial acetic acid) and viability assessment (trypan blue exclusion test) was performed for the bone marrow sample.
(§3) On the day of the experiment, the compounds were dissolved in DMSO to a stock concentration of 10 mM. Serial dilutions were prepared from the stock concentration to achieve concentrations of 2 and 0.4 mM. When added to the methylcellulose-based media at 1:1000 (v/v), the final test concentrations of 10, 2 and 0.4 μM were achieved. Additionally, 5-FU was evaluated at 1.0, 0.1 and 0.01 μg/mL.
(§4) Clonogenic progenitors of the human erythroid (CFU-E and BFU-E) and myeloid (CFU-GM) lineages were set up in the methylcellulose-based media formulations described above. All compounds were added to the medium to give the final desired concentrations (10, 2 and 0.4 μM). 5-Fluorouracil (Sigma Aldrich) was used as a positive control for progenitor proliferation (inhibition of colony growth) and was introduced to the human bone marrow cultures at 1.0, 0.1, and 0.01 μg/mL. Solvent control cultures (containing no compound but 0.1% DMSO) as well as standard controls (containing no compound and no DMSO) were also initiated.
(§5) Human myeloid and erythroid progenitor assays were initiated at 2.0×10^4 cells per culture. Following 14 days in culture, myeloid and erythroid colonies were assessed microscopically and scored by trained personnel. The colonies were divided into the following categories based on size and morphology: CFU-E, BFU-E, CFU-GM and CFU-GEMM.
(§6) The mean±one standard deviation of three replicate cultures was calculated for progenitors of each category (CFU-E, BFU-E, etc.). Two-tailed t-tests were performed to assess if there was a difference in the number of colonies generated between solvent control and treated cultures. Due to the potential subjectivity of colony enumeration, a p value of less than 0.01 is deemed significant. To calculate the concentration of 50% inhibition of colony growth (IC50) for each compound, a dose response curve was generated plotting the log of the compound concentration versus the percentage of control colony growth using XLfit software (IDBS). The concentration of 50% inhibition of colony growth (IC50) was calculated based on the sigmoid curve fit using Dose-Response, One-Site Model formula: y=A+[(B−A)/(1+((C/x)^D))], where A=the initial value (baseline response), B=maximum response, C=center (drug concentration that provokes a response halfway between A and B) and D=slope of the curve at midpoint. Further, plots and additional dose response curves were generated using GraphPad Prism 7.0.
(§7) Erythroid (CFU-E and BFU-E), myeloid (CFU-GM) and multi-potential (CFU-GEMM) colony enumeration was performed by trained personnel. The distribution of colony types as well as general colony and cellular morphology was analyzed. For statistical analysis colony numbers in compound treated cultures were compared to the solvent control cultures. […]

[2] = system: human erythroid progenitors (CFU-E, BFU-E); experiment: Erythroid CFU assay in human bone marrow cells; assay type: cell-based; settings: 10 μM, 14 days culture, human bone marrow cells
Experimental: as §1, §2, §3, §4, §5, §6, §7

[3] = Brain and plasma exposure following IV and PO administration to mice; assay type: in vivo; settings: for Mouse IV-PO (1/10 mpk): F: IV 1 mpk / PO 10 mpk; for clearance / half-life: plasma
Experimental: Compounds were dosed in mice at either 10 mg/kg or 30 mg/kg PO, and were dosed at 1 mg/kg IV. Three animals for collection at each time point for plasma via bleeding at 0.25, 0.5, 1, 4, 12 and 24 h. Terminal bleeding for plasma and sampling for brain at 0.25, 0.5, 1, 4, 12 and 24 h (also three animals per brain exposure time point group). Total of six time points for plasma and six time points for brain.
Plasma: The animal was restrained manually at the designated time points, approximately 150 μL blood/time point was collected into K2EDTA tube via retro orbital puncture or cardiac puncture under anesthesia with Isoflurane. The blood sample was centrifuged (2000 g, 4° C., 5 min) to generate plasma within 30 min after bleeding.
Brain: At the designated time points, a mid-line incision was made in the animals scalp and the skin was retracted. Using small bone cutters and rongeurs, removed the skull overlying the brain. Removed the brain using a spatula and rinse with cold saline. Placed the brain in screw-top tubes, and then stored the tubes under −70° C. until analysis.

Nc1ccc(-c2ccc(F)cc2)cc1NC(=O)N1Cc2nccnc2C1 [Comparator A]
CFU % Control remaining @ 10 μM Myeloid [1]: 0%
CFU % Control remaining @ 10 μM Erythroid [2]: 0%

Nc1ccc(-c2ccc(F)cc2)nc1NC(=O)N1Cc2nccnc2C1 [Comparator B]
CFU % Control remaining @ 10 μM Myeloid [1]: 25%
CFU % Control remaining @ 10 μM Erythroid [2]: 9%

Nc1ccc(-c2cccs2)nc1NC(=O)N1Cc2nccnc2C1 [Comparator C]
CFU % Control remaining @ 10 μM Myeloid [1]: 20%
CFU % Control remaining @ 10 μM Erythroid [2]: 20%

Nc1ccc(-c2ccc(F)cc2)nc1NC(=O)N1Cc2cncnc2C1 [Comparator D]
Projected Brain Cmax @ 10 mpk (*scaled for comparison) ([3]; mouse, brain, scaled to 10 mpk for comparison): 158* ng/g
CFU % Control remaining @ 10 μM Myeloid [1]: 84%
CFU % Control remaining @ 10 μM Erythroid [2]: 47%

Nc1ccc(-c2cccs2)nc1NC(=O)N1Cc2cncnc2C1 [Comparator E]
Mouse IV-PO (1/10 mpk): F [3]: 49%
Mouse PO (10 mpk): Brain Cmax ([3]; brain): 100 ng/g
Mouse PO (10 mpk): Free brain Cmax ([3]; free brain): 35 ng/g
CFU % Control remaining @ 10 μM Myeloid [1]: 83%
CFU % Control remaining @ 10 μM Erythroid [2]: 54%

COCc1cc2c(cn1)CN(C(=O)Nc1nc(-c3ccc(F)cc3F)ccc1N)C2 [Compound 1]
Projected Brain Cmax @ 10 mpk ([3]; mouse, 10 mpk, brain): 2460 ng/g
Projected free brain @ 10 mpk ([3]; mouse, 10 mpk, free brain): 1.04 µM
clearance ([3]; 1 mg/kg, mouse, IV, read-out: IV PK Cl (converted)): 11.4 mL/min/kg
half-life ([3]; 1 mg/kg, mouse, IV, read-out: IV PK T ½ (converted)): 2.13 h
half-life ([3]; 10 mpk, mouse, PO, read-out: PK T ½ PO (converted)): 1.97 h
CFU % Control remaining @ 10 μM Myeloid [1]: 86%
CFU % Control remaining @ 10 μM Erythroid [2]: 57%

Cc1ncc2c(n1)CN(C(=O)Nc1nc(-c3cccs3)ccc1N)C2 [Compound 2]
Mouse IV-PO (1/10 mpk): F [3]: 100%
Mouse PO (10 mpk): Brain Cmax ([3]; brain): 583 ng/g
Mouse PO (10 mpk): Free brain Cmax ([3]; free brain): 173 ng/g
higher brain exposure over the unsubstituted pyrimidine analog ([3]; mouse, relative to Comparator E): > 5 fold
clearance ([3]; 1 mg/kg, mouse, IV 1 mpk, read-out: Mouse IV (1 mpk): Cl (converted)): 69.7 mL/min/kg
half-life ([3]; 1 mg/kg, mouse, IV 1 mpk, read-out: Mouse IV (1 mpk): T1/2 (converted)): 0.839 h
half-life ([3]; 10 mpk, mouse, PO, read-out: Mouse PO (1/10 mpk): T1/2 (converted)): 1.05 h
CFU % Control remaining @ 10 μM Myeloid [1]: 59%
CFU % Control remaining @ 10 μM Erythroid [2]: 27%
